Key:
cAMP PDE = assay: Phosphodiesterase (PDE) inhibitory activity, cAMP substrate; assay type: biochemical, rat; conditions: 0.14 μM 14C-labeled cAMP, pH 8.0, 30° C., 20 minutes, crude enzyme from rat brains; read-out: I50 cAMP PDE
Procedure: (§1) The test was carried out following essentially the method of A. L. Pichard and Y. U. Chung [Journal of Biological Chemistry, 251, 5726-5737 (1976)]. A crude enzymatic solution derived from rat brains was used as the source of cAMP PDE.
(§2) ^14 C-labeled cAMP was used as the substrate. It was employed in a 0.2M Tris-hydrochloric acid buffer solution (pH 8.0) in an amount sufficient to provide a final concentration of 0.14 μM. "Tris" is tris(hydroxymethyl)aminomethane. The substrate solution was mixed with an appropriate amount of the compound under test dissolved in 2-5 μl of dimethyl sulfoxide and with 20 μl of a snake venom solution and 40 μl of the crude enzyme solution. Sufficient Tris-hydrochloric acid buffer was added to make a total volume of 100 μl. The mixture was allowed to react at 30° C. for 20 minutes. At the end of this time, the reaction mixture was treated with an Amberlite (trade mark) IRP-58 resin and the level of residual adenosine radioactivity in the product was determined.

cGMP PDE = assay: Phosphodiesterase (PDE) inhibitory activity, cGMP substrate; assay type: biochemical; conditions: cGMP as substrate, crude enzyme from rat brains; read-out: I50 cGMP PDE
Procedure: as §1, §2
The experiment was repeated, except that cyclic guanosine monophosphate (cGMP) was employed as the substrate instead of cAMP. The I50 value against cGMP PDE was also calculated.

cerebral blood flow = assay: Improving cerebral blood flow; assay type: in vivo, rabbit
Text: The "duration (T1/2)" is the time in minutes required for the increase in cerebral blood flow to reduce by one half.

Row | SMILES | IC50 (cAMP PDE) | IC50 (cGMP PDE) | also measured
1 | Nc1ncnc2c1ncn2C1OC2=CC(C(=O)O)([C@@H](O)C(=O)O)OC2[C@H]1OC(=O)c1ccccc1 (stereo partly shown) [Compound No. 36, O^2' -benzoylgriseolic acid] | 6.8 µM | 48 µM | –
2 | Nc1ncnc2c1ncn2C1OC2=CC(C(=O)O)([C@@H](OC(=O)c3ccccc3)C(=O)O)OC2[C@H]1O (stereo partly shown) [Compound No. 37, O^7' -benzoylgriseolic acid] | 0.31 µM | 2.9 µM | –
3 | O=C(Nc1ncnc2c1ncn2C1OC2=CC(C(=O)O)([C@@H](OC(=O)c3ccccc3)C(=O)O)OC2[C@H]1O)c1ccccc1 (stereo partly shown) [Compound No. 39, N^6,O^7' -dibenzoylgriseolic acid] | 33 µM | 111 µM | –
4 | Nc1ncnc2c1ncn2C1OC2=CC(C(=O)O)([C@@H](OC(=O)c3ccccc3)C(=O)O)OC2[C@H]1OC(=O)c1ccccc1 (stereo partly shown) [Compound No. 40, O^2',O^7' -dibenzoylgriseolic acid] | 3.2 µM | 90 µM | –
5 | CC(=O)O[C@@H]1C2OC(C(=O)O)([C@@H](OC(C)=O)C(=O)O)C=C2OC1n1cnc2c(N)ncnc21 (stereo partly shown) [Compound No. 41, O^2',O^7' -diacetylgriseolic acid] | 9.3 µM | 243 µM | –
6 | N=c1c2ncn(C3OC4=CC(C(=O)O)([C@@H](O)C(=O)O)OC4[C@H]3O)c2ncn1Cc1ccccc1 (stereo partly shown) [Compound No. 45, N^1 -benzylgriseolic acid] | 0.6 µM | 1.2 µM | –
7 | CC(=O)O[C@@H](C(=O)O)C1(C(=O)O)C=C2OC(n3cnc4c(=N)n(Cc5ccccc5)cnc43)[C@H](O)C2O1 (stereo partly shown) [Compound No. 46, O^7' -acetyl-N^1 -benzylgriseolic acid] | 1.8 µM | 0.9 µM | –
8 | O=C(O)C(O)C1(C(=O)O)C=C2OC(n3cnc4c(=O)[nH]cnc43)C(O)C2O1 (stereo not shown) [Compound No. 51, 6-desamino-6-hydroxygriseolic acid] | 0.32 µM | 0.13 µM | –
9 | O=C(O)[C@H](O)C1(C(=O)O)C=C2OC(n3cnc4cncnc43)[C@H](O)C2O1 (stereo partly shown) [Compound No. 53, 6-desamino-6-hydrogriseolic acid] | 14 µM | 1.2 µM | –
10 | CNc1ncnc2c1ncn2C1OC2=CC(C(=O)O)([C@@H](O)C(=O)O)OC2[C@H]1O (stereo partly shown) [Compound No. 58, N^6 -methylgriseolic acid] | 2 µM | 14 µM | –
11 | CN(C)c1ncnc2c1ncn2C1OC2=CC(C(=O)O)([C@@H](O)C(=O)O)OC2[C@H]1O (stereo partly shown) [Compound No. 59, N^6 -dimethylgriseolic acid] | 31 µM | 39 µM | –
12 | NNc1ncnc2c1ncn2C1OC2=CC(C(=O)O)([C@@H](O)C(=O)O)OC2[C@H]1O (stereo partly shown) [Compound No. 60, 6-desamino-6-hydrazinogriseolic acid] | 5.4 µM | 4.8 µM | –
13 | O=C(O)[C@H](O)C1(C(=O)O)C=C2OC(n3cnc4c(NCc5ccccc5)ncnc43)[C@H](O)C2O1 (stereo partly shown) [Compound No. 63, N^6 -benzylgriseolic acid] | 7.4 µM | 9.7 µM | –
14 | [N-]=[N+]=N[C@H](C(=O)O)C1(C(=O)O)C=C2OC(n3cnc4c(N)ncnc43)[C@H](O)C2O1 (stereo partly shown) [Compound No. 81, 7'-azido-7'-deoxygriseolic acid] | 4.4 µM | 13 µM | –
15 | Nc1ncnc2c1ncn2C1OC2=CC(C(=O)O)(C(Cl)C(=O)O)OC2[C@H]1O (stereo partly shown) [Compound No. 88, 7'-chloro-7'-deoxygriseolic acid] | 1.5 µM | 14.8 µM | –
16 | COc1ncnc2c1ncn2C1OC2=CC(C(=O)O)([C@@H](O)C(=O)O)OC2[C@H]1O (stereo partly shown) [Compound No. 124, 6-desamino-6-methoxygriseolic acid] | 10 µM | 4.9 µM | –
17 | Nc1ncnc2c1ncn2C1OC2=CC(CC(=O)O)(C(=O)O)OC2[C@H]1O (stereo partly shown) [Compound No. 133, 7'-deoxygriseolic acid] | 0.14 µM | 1.1 µM | Duration (T 1/2) (cerebral blood flow; 10 mg/kg): > 60 min; Increase in cerebral blood flow (Vp), ratio to papaverine 1 mg/kg (cerebral blood flow; 10 mg/kg): 10
18 | Nc1ncnc2c1ncn2C1OC2=CC(C(=O)O)([C@H](N)C(=O)O)OC2[C@H]1O (stereo partly drawn) [Compound No. 135, 7'(S)-amino-7'-deoxygriseolic acid] | 2 µM | 4.2 µM | –
19 | Nc1ncnc2c1ncn2C1OC2=CC(C(=O)O)([C@H](Br)C(=O)O)OC2[C@H]1O (stereo partly drawn) [Compound No. 137, 7'(S)-bromo-7'-deoxygriseolic acid] | 3.4 µM | 19 µM | –

Row | SMILES | IC50 (cAMP PDE) | IC50 (cGMP PDE) | also measured
20 | O=C(O)CC1(C(=O)O)C=C2OC(n3cnc4c(=O)[nH]cnc43)C(O)C2O1 (stereo not shown) [Compound No. 138, 6-desamino-7'-deoxy-6-hydroxygriseolic acid] | 0.14 µM | 0.05 µM | Duration (T 1/2) (cerebral blood flow; 10 mg/kg): > 60 min; Increase in cerebral blood flow (Vp), ratio to papaverine 1 mg/kg (cerebral blood flow; 10 mg/kg): 5.5
21 | Nc1ncnc2c1ncn2C1OC2=CC(C(=O)O)([C@H](O)C(=O)O)OC2[C@H]1O (stereo partly drawn) [Compound No. 140, 7'-deoxy-7'(S)-hydroxygriseolic acid] | 0.76 µM | 2.8 µM | –
22 | CC(=O)O[C@H](C(=O)O)C1(C(=O)O)C=C2OC(n3cnc4c(N)ncnc43)[C@H](O)C2O1 (stereo partly drawn) [Compound No. 141, 7'(S)-acetoxy-7'-deoxygriseolic acid] | 0.22 µM | 1.05 µM | Duration (T 1/2) (cerebral blood flow; 10 mg/kg): > 60 min; Increase in cerebral blood flow (Vp), ratio to papaverine 1 mg/kg (cerebral blood flow; 10 mg/kg): 9.2
23 | Nc1ncnc2c1ncn2C1OC2=CC(C(=O)O)([C@@H](O)C(=O)O)OC2[C@@H]1Cl (stereo partly drawn) [Compound No. 142, 2'(S)-chloro-2'-deoxygriseolic acid] | 0.15 µM | 2.5 µM | –
24 | Nc1ncnc2c1ncn2C1OC2=CC(C(=O)O)([C@@H](O)C(=O)O)OC2[C@@H]1Br (stereo partly drawn) [Compound No. 143, 2'(S)-bromo-2'-deoxygriseolic acid] | 0.09 µM | 4.1 µM | –
25 | Nc1ncnc2c1ncn2C1CC2OC(C(=O)O)([C@@H](O)C(=O)O)C=C2O1 (stereo partly shown) [Compound No. 144, 2'-deoxygriseolic acid] | 0.19 µM | 1.1 µM | –
26 | Nc1ncnc2c1nc(Br)n2C1OC23OC(C(=O)O)C(C(=O)O)(OC2[C@H]1O)C3Br (stereo partly drawn) [Compound No. 187, 4',7'-anhydro-5',α,8-dibromo-4'α-hydroxygriseolic acid] | 35 µM | 32 µM | –
27 | Nc1ncnc2c1nc(S)n2C1OC2=CC(C(=O)O)([C@@H](O)C(=O)O)OC2[C@H]1O (stereo partly shown) [Compound No. 192, 8-mercaptogriseolic acid] | 30.4 µM | 49.8 µM | –
28 | COc1nc2c(N)ncnc2n1C1OC2=CC(C(=O)O)([C@@H](O)C(=O)O)OC2[C@H]1O (stereo partly shown) [Compound No. 195, 8-methoxygriseolic acid] | 3.9 µM | 3.2 µM | –
29 | Nc1ncnc2c1nc(Br)n2C1OC2=CC(C(=O)O)([C@@H](O)C(=O)O)OC2[C@H]1O (stereo partly shown) [Compound No. 196, 8-bromogriseolic acid] | 2.5 µM | 1.7 µM | –
30 | O=C(O)C(O)C1(C(=O)O)C=C2OC(n3c(Br)nc4c(=O)[nH]cnc43)C(O)C2O1 (stereo not shown) [Compound No. 197, 8-bromo-6-desamino-6-hydroxygriseolic acid] | 25 µM | 13.1 µM | –
31 | [N-]=[N+]=N[C@H]1C2OC(C(=O)O)([C@@H](O)C(=O)O)C=C2OC1n1cnc2c(N)ncnc21 (stereo partly drawn) [Compound No. 247, 2'(S)-azido-2'-deoxygriseolic acid] | 0.45 µM | 6.4 µM | –
32 | Nc1ncnc2c1ncn2C1OC2=CC(C(=O)O)([C@@H](O)C(=O)O)OC2[C@@H]1N (stereo partly drawn) [Compound No. 248, 2'(S)-amino-2'-deoxygriseolic acid] | 3.2 µM | 12.7 µM | –
33 | Nc1ncnc2c1ncn2C1OC2=CC(C(=O)O)([C@@H](O)C(=O)O)OC2[C@@H]1I (stereo partly drawn) [Compound No. 249, 2'-deoxy-2'(S)-iodogriseolic acid] | 0.44 µM | 2.8 µM | –
34 | COC(=O)C1=C(C)NC(C)=C(C(=O)OCCN(C)Cc2ccccc2)C1c1cccc([N+](=O)[O-])c1 (stereo not shown) [Nicardipine, reference compound] | – | – | Duration (T 1/2) (cerebral blood flow; 0.01 mg/kg): 14 min; Increase in cerebral blood flow (Vp), ratio to papaverine 1 mg/kg (cerebral blood flow; 0.01 mg/kg): 3.2
35 | COc1ccc(Cc2nccc3cc(OC)c(OC)cc23)cc1OC [Papaverine, papaverine, reference compound] | – | – | Change in blood pressure (pascals) (cerebral blood flow; 1 mg/kg): -1040 pascals; Change in blood pressure mm Hg (cerebral blood flow; 1 mg/kg): -7.8 mm Hg
36 | CC[C@]12CCCN3CCc4c(n(c5ccccc45)[C@@](O)(C(=O)OC)C1)[C@@H]32 [Vincamine, reference compound] | – | – | Duration (T 1/2) (cerebral blood flow; 1 mg/kg): 3.2 min; Increase in cerebral blood flow (Vp), ratio to papaverine 1 mg/kg (cerebral blood flow; 1 mg/kg): 1.7; Duration (T 1/2) (cerebral blood flow; 2.5 mg/kg): 2.1 min; Increase in cerebral blood flow (Vp), ratio to papaverine 1 mg/kg (cerebral blood flow; 2.5 mg/kg): 3.2
37 | Cn1c(=O)c2[nH]cnc2n(C)c1=O [theophylline, reference compound] | 360 µM | 196 µM | –

Reference: patent US4634706A, “Griseolic acid derivatives, and their use as enzyme inhibitors” (Sankyo Company Limited, priority 1983, dated 1987)
